Test results: patent US6537545B1, “Use of corneal hardening agents in enzymeorthokeratology” (ISTA Pharmaceuticals, Inc., priority 1998, dated 2003)

Tested on: Dutch Belted rabbit eyes
Test: Slit lamp biomicroscopy including Rose Bengal staining (Example 2)
Format: in vivo
Method: This example further examines the safety of glyceraldehyde treatment in an animal model. The experiment described in Example 2 involved the study of six (6) pigmented Dutch Belted rabbits, two (2) in the control group and four (4) in glyceraldehyde treated experimental group. On Study Day 1, all rabbits received a thorough ophthalmic examination including slit lamp biomicroscopy and indirect ophthalmoscopy.
The slit lamp biomicroscopy was performed substantially as described in Example 1. However, Rose Bengal stain was used here applied using Rose Bengal Ophthalmic Strips (Barnes-Hind, Inc., Sunnyvale, Calif.). This procedure involved a sterile strip wetted in 0.9% sodium chloride applied to the […] and sciera of an examined rabbit. The rabbit was allowed to blink applying the stain and then the treated eye was examined. Slit lamp biomicroscopy including Rose Bengal staining was performed on Study Days 1 (baseline), 8, 9, 11, 15, 34, 45, and 63. The animals were scored and the results recorded using the criteria described in Example 1.
Following baseline examinations, the rabbits were anesthetized and received a corneal intrastromal injection of 500 IU of hyaluronidase in OD (right eye) only using the method described in Example 1.
The administration of the test agents in the form of topical eyedrops began on Study Day 8. The control animals were administered a Balanced Saline Solution (BSS) (IOLAB Corporation, Claremont, Calif.) four times a day in each eye. The experimental animals received a 3% glyceraldehyde solution. The glyceraldehyde solution was prepared under sterile conditions at Advanced Corneal Systems (Irvine, Calif.) by dissolving 18 grams of glyceraldehyde in 600 mL of 0.9% sodium chloride USP, sterile filtering, and aliquotting the 3% glyceraldehyde (w/v) solution into 10 ml droppers. The experimental rabbits received one drop of glyceraldehyde solution four times a day using the technique described in Example 1. The rabbits received topical drops for a total of 63 days.

`O=CC(O)CO` (stereo not drawn) [glyceraldehyde] was tested, and the “day by which aqueous cell/flare was absent” value (glyceraldehyde treated cohort had cell and flare at baseline) was ≤ 14 days, the “changes to the structure of the eyes as compared to controls” value (rabbits, 3% glyceraldehyde 1 drop four times a day, 63 days, 500 IU hyaluronidase in right eye only) was “no significant changes” and the “effect on resolution of baseline aqueous cell and flare” value (rabbits, 3% glyceraldehyde drops four times a day) was “did not appear to impair the resolution of the cell and flare”.
